Results as given in ChEMBL document CHEMBL3885881, “DrugMatrix”.

Species: Rattus norvegicus
Test: DrugMatrix - Regimen: Daily Repeat
Type: toxicity, organism-based, Sprague-Dawley
Design: regimen Daily Repeat, gender Male, age 6-8 weeks
Details: in vivo, iv, […], dose 0.21 mg/Kg, dose level Low, vehicle 100 % SALINE; for ABSOLUTE BASOPHIL / ABSOLUTE EOSINOPHIL / ABSOLUTE LYMPHOCYTE / ABSOLUTE MONOCYTE / ABSOLUTE SEGMENTED NEUTROPHIL / BASOPHIL / EOSINOPHIL / ERYTHROCYTE COUNT / HEMATOCRIT / HEMOGLOBIN / LEUKOCYTE COUNT / LYMPHOCYTE / MEAN CORPUSCULAR HEMOGLOBIN / MEAN CORPUSCULAR HEMOGLOBIN CONCENTRATION / MEAN CORPUSCULAR VOLUME / MONOCYTE / NEUTROPHIL / NUCLEATED RED BLOOD CELLS / PLATELET COUNT: tissue Blood; for ALANINE AMINOTRANSFERASE / ALBUMIN / ALKALINE PHOSPHATASE / ASPARTATE AMINOTRANSFERASE / BLOOD UREA NITROGEN / CARBON DIOXIDE / CHLORIDE / CHOLESTEROL / CREATINE PHOSPHOKINASE / CREATININE / GLUCOSE / LACTATE DEHYDROGENASE / LIPASE / PHOSPHORUS / POTASSIUM / SODIUM / TOTAL BILIRUBIN / TOTAL PROTEIN / URIC ACID: tissue Plasma

SMILES: O=C1c2c(O)ccc(O)c2C(=O)c2c(NCCNCCO)ccc(NCCNCCO)c21 [MITOXANTRONE]
- ABSOLUTE BASOPHIL (72 h, time 3 day): 0 CELLS/uL
- ABSOLUTE EOSINOPHIL (72 h, time 3 day): 34.67 CELLS/uL
- ABSOLUTE LYMPHOCYTE (72 h, time 3 day): 7414.67 CELLS/uL
- ABSOLUTE MONOCYTE (72 h, time 3 day): 92.67 CELLS/uL
- ABSOLUTE SEGMENTED NEUTROPHIL (72 h, time 3 day): 224.67 CELLS/uL
- BASOPHIL (72 h, time 3 day): 0%
- EOSINOPHIL (72 h, time 3 day): 0.33%
- ERYTHROCYTE COUNT (72 h, time 3 day): 5.52 x10E6/uL
- HEMATOCRIT (72 h, time 3 day): 34.13%
- HEMOGLOBIN (72 h, time 3 day): 12.87 G/DL
- LEUKOCYTE COUNT (72 h, time 3 day): 7.77 x10E3/uL
- LYMPHOCYTE (72 h, time 3 day): 96%
- MEAN CORPUSCULAR HEMOGLOBIN (72 h, time 3 day): 23.37 pg
- MEAN CORPUSCULAR HEMOGLOBIN CONCENTRATION (72 h, time 3 day): 37.73 G/DL
- MEAN CORPUSCULAR VOLUME (72 h, time 3 day): 61.87 fL
- MONOCYTE (72 h, time 3 day): 1%
- NEUTROPHIL (72 h, time 3 day): 2.67%
- NUCLEATED RED BLOOD CELLS (72 h, time 3 day): 0 /100WBC
- PLATELET COUNT (72 h, time 3 day): 1537 x10E3/uL
- ALANINE AMINOTRANSFERASE (72 h, time 3 day): 46 u/L
- ALBUMIN (72 h, time 3 day): 4.5 G/DL
- ALKALINE PHOSPHATASE (72 h, time 3 day): 370.67 u/L
- ASPARTATE AMINOTRANSFERASE (72 h, time 3 day): 75 u/L
- BLOOD UREA NITROGEN (72 h, time 3 day): 14.33 mg/dL
- CARBON DIOXIDE (72 h, time 3 day): 24 mmol/L
- CHLORIDE (72 h, time 3 day): 103.33 MEQ/L
- CHOLESTEROL (72 h, time 3 day): 77.33 mg/dL
- CREATINE PHOSPHOKINASE (72 h, time 3 day): 192 u/L
- CREATININE (72 h, time 3 day): 0.24 mg/dL
- GLUCOSE (72 h, time 3 day): 163 mg/dL
- LACTATE DEHYDROGENASE (72 h, time 3 day): 207.67 u/L
- LIPASE (72 h, time 3 day): 9.67 u/L
- PHOSPHORUS (72 h, time 3 day): 13.57 mg/dL
- POTASSIUM (72 h, time 3 day): 7.01 MEQ/L
- SODIUM (72 h, time 3 day): 145.1 MEQ/L
- TOTAL BILIRUBIN (72 h, time 3 day): 0.23 mg/dL
- TOTAL PROTEIN (72 h, time 3 day): 6.23 G/DL
- URIC ACID (72 h, time 3 day): 2.6 mg/dL
- ABSOLUTE BASOPHIL (120 h, time 5 day): 0 CELLS/uL
- ABSOLUTE EOSINOPHIL (120 h, time 5 day): 26.67 CELLS/uL
- ABSOLUTE LYMPHOCYTE (120 h, time 5 day): 5180 CELLS/uL
- ABSOLUTE MONOCYTE (120 h, time 5 day): 42.67 CELLS/uL
- ABSOLUTE SEGMENTED NEUTROPHIL (120 h, time 5 day): 217.33 CELLS/uL
- BASOPHIL (120 h, time 5 day): 0%
- EOSINOPHIL (120 h, time 5 day): 0.67%
- ERYTHROCYTE COUNT (120 h, time 5 day): 5.12 x10E6/uL
- HEMATOCRIT (120 h, time 5 day): 32.83%
- HEMOGLOBIN (120 h, time 5 day): 12.5 G/DL
- LEUKOCYTE COUNT (120 h, time 5 day): 5.47 x10E3/uL
- LYMPHOCYTE (120 h, time 5 day): 94.33%
- MEAN CORPUSCULAR HEMOGLOBIN (120 h, time 5 day): 24.47 pg
- MEAN CORPUSCULAR HEMOGLOBIN CONCENTRATION (120 h, time 5 day): 38.1 G/DL
- MEAN CORPUSCULAR VOLUME (120 h, time 5 day): 64.27 fL
- MONOCYTE (120 h, time 5 day): 1%
- NEUTROPHIL (120 h, time 5 day): 4%
- NUCLEATED RED BLOOD CELLS (120 h, time 5 day): 0.33 /100WBC
- PLATELET COUNT (120 h, time 5 day): 1671.33 x10E3/uL
- ALANINE AMINOTRANSFERASE (120 h, time 5 day): 42.33 u/L
- ALBUMIN (120 h, time 5 day): 4.27 G/DL
- ALKALINE PHOSPHATASE (120 h, time 5 day): 328.67 u/L
- ASPARTATE AMINOTRANSFERASE (120 h, time 5 day): 67 u/L
- BLOOD UREA NITROGEN (120 h, time 5 day): 15 mg/dL
- CARBON DIOXIDE (120 h, time 5 day): 24.33 mmol/L
- CHLORIDE (120 h, time 5 day): 107.67 MEQ/L
- CHOLESTEROL (120 h, time 5 day): 77.67 mg/dL
- CREATINE PHOSPHOKINASE (120 h, time 5 day): 193.33 u/L
- CREATININE (120 h, time 5 day): 0.25 mg/dL
- GLUCOSE (120 h, time 5 day): 163.33 mg/dL
- LACTATE DEHYDROGENASE (120 h, time 5 day): 101 u/L
- LIPASE (120 h, time 5 day): 12 u/L
- PHOSPHORUS (120 h, time 5 day): 11.77 mg/dL
- POTASSIUM (120 h, time 5 day): 6.53 MEQ/L
- SODIUM (120 h, time 5 day): 146.7 MEQ/L
- TOTAL BILIRUBIN (120 h, time 5 day): 0.2 mg/dL
- TOTAL PROTEIN (120 h, time 5 day): 5.87 G/DL
- URIC ACID (120 h, time 5 day): 1.8 mg/dL
